Results: US11207301B2, “Sphingosine 1 phosphate receptor agonists for neuroprotection” (RECEPTOS LLC, priority 2017, dated 2021)
“Also recorded” adds a separate entry of the source.

Key:
[1] = target: T1, Recombinant human MAO-A (Homo sapiens, UniProt P21397); test: MAO-A inhibition, conversion of kynuramine to 4-hydroxyquinoline; assay type: biochemical; details: tested up to 100 μM
T1 construct: purchased Sigma-Aldrich M7316; host or cells: baculovirus infected insect cells
T1 sequence (P21397 1-527): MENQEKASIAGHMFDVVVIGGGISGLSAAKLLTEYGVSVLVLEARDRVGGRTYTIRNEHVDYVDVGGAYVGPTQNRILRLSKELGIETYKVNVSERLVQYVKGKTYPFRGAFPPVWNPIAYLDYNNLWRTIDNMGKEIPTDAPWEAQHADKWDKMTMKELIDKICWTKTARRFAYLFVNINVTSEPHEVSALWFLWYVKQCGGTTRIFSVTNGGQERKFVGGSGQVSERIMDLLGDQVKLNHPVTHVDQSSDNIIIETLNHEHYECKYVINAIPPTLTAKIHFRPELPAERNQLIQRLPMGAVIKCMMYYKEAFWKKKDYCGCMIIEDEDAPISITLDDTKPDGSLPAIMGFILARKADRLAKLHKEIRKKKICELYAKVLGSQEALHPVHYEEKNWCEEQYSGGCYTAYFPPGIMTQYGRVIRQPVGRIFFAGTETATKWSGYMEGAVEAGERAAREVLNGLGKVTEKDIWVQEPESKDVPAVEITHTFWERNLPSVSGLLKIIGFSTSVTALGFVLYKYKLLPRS
Method: The effect of a S1P receptoragonist on MAO-B activity can be assessed by measuring the inhibition of conversion of substrate kynuramine to 4-hydroxyquinoline as described in Example 4.
Compound 1 and Compound 2-S were evaluated for their ability to inhibit MAO-A and MAO-B. Inhibition of the conversion of kynuramine, a substrate for MAO-A and MAO-B, to 4-hydroxyquinoline was used to assess the inhibitory potential of Compound 1 and Compound 2-S. Recombinant human MAO-A (product number M7316) and MAO-B (product number M7441) expressed in baculovirus infected insect cells were obtained from Sigma-Aldrich, Saint Louis, Mo. USA were used as a source of purified MAOs.
Recombinant MAO-A (0.01 mg/mL, final concentrations) and MAO-B (0.02 mg/mL, final concentration) were diluted to desired concentrations in 100 mM potassium phosphate buffer (pH 7.4) containing 5 mM MgCl2. The diluted protein fractions were preincubated with various concentrations of each test compound at 37° C. for 2 min. The concentrations used were 100, 33, 10, 3.3, 1.0, 0.33 μM and acetonitrile/DMSO as vehicle control for MAO-A and 1.0, 0.3, 0.1, 0.03, 0.01, 0.003 μM and acetonitrile/DMSO as vehicle control for MAO-B. The reaction was started by addition of kynuramine to the incubation mixture. The final concentration of kynuramine was 40 μM for MAO-A and 25 μM for MAO-B. The total incubation volume was 0.250 mL. […] The reaction product, 4-hydroxyquinoline was analyzed by LC-MS/MS as described below. […]
The gradient system was used to separate the analytes with a flow rate of 0.5 ml/min using mobile phase A, water containing 0.1% formic acid and mobile phase B, acetonitrile containing 0.1% formic acid. […] The analytes were monitored using multiple reaction monitoring and the ion transitions (Q1/Q3) were as follows: 4-hydroxyquinoline 146/104 (collision energy, CE was 27; declustering potential, DP, 50, and IS (acetaminophen), 152/110 (collision energy, CE was 27; declustering potential, DP, 50). All data were analyzed using AB Sciex Analyst v1.6.2 software.

[2] = system: experimental autoimmune encephalomyelitis (EAE)-induced mouse model of Multiple Sclerosis (MS); test: Experimental autoimmune encephalomyelitis (EAE)-induced mouse model of multiple sclerosis, oral ozanimod; assay type: in vivo, C57BL/6 mice; details: EAE mice
Text: In one embodiment, the S1P receptor agonist provides therapeutic benefit in the context of relapsing-remitting multiple sclerosis (RRMS), by down-modulating S1P receptor and resulting in retention of autoreactive lymphocytes in secondary lymphoid organs. As set forth in greater detail below, ozanimod activity on immune cell subsets was examined in the experimental autoimmune encephalomyelitis (EAE)-induced mouse model of Multiple Sclerosis (MS). C57BL/6 mice were immunized with MOG35-55 and pertussis toxin to initiate immune cell activation, migration to the spinal cord and neurodegeneration. Animals were treated with oral ozanimod either semi-therapeutically or therapeutically to investigate the impact on peripheral immune cell expansion and migration into the spinal cord. The plasma biomarker of CNS injury, neurofilament light (NfL), was measured at study termination.
Ozanimod activity on immune cell subsets was examined in the experimental autoimmune encephalomyelitis (EAE)-induced mouse model of Multiple Sclerosis (MS). C57BL/6 mice were immunized with MOG35-55 and pertussis toxin to initiate immune cell activation, migration to the spinal cord and neurodegeneration. Animals were treated with oral ozanimod either semi-therapeutically or therapeutically to investigate the impact on peripheral immune cell expansion and migration into the spinal cord. The plasma biomarker of CNS injury, neurofilament light (NfL), was measured at study termination.

SMILES	MAO-A inhibition (in words) [1]	spinal cord inflammation and demyelination [2]	reduction of microglia expansion in the spinal cord ([2]; day 18-21 post-immunization) [%]	decrease of monocyte infiltration into the spinal cord ([2]; oral ozanimod) [%]	diminished Th1 and Th17 cell expansion in the periphery ([2]; oral ozanimod)	reduction of the number of Th1 and Th17 cells in the spinal cord ([2]; oral ozanimod) [%]	plasma biomarker of CNS injury NfL ([2]; therapeutic dosing, at study termination, vehicle 3298±350, p=0.05) [pg/mL]
CC(C)Oc1ccc(-c2nc(-c3cccc4c3CCC4=O)no2)cc1C#N [Compound 1, 2-isopropoxy-5-(3-(1-oxo-2,3-dihydro-1H-inden-4-yl)-1,2,4-oxadiazol-5-yl)benzonitrile]	not an inhibitor; also recorded: does not inhibit						
CC(C)Oc1ccc(-c2nc(-c3cccc4c3CC[C@@H]4NCCO)no2)cc1C#N [Ozanimod]		reduce spinal cord inflammation and demyelination	75	65	60-70%	≥ 80	2209 ± 393
